Source: US6365616B1, “Methimazole derivatives and tautomeric cyclic thiones to treat autoimmune diseases” (Sentron Medical, Inc., priority 1998, dated 2002)
Read-outs that look alike come from different tables or passages of the source.

B1: γ-IFN: rat recombinant γ-interferon, 100 U/ml, used to increase MHC class I and class II expression in FRTL-5 cells (protein, UniProt P01581 23-156, looked up)
Interferon gamma: QGTLIESLESLKNYFNSSSMDAMEGKSLLLDIWRNWQKDGNTKILESQIISFYLRLFEVLKDNQAISNNISVIESHLITNFFSNSKAKKDAFMSIAKFEVNNPQIQHKAVNELIRVIHQLSPESSLRKRKRSRC

Tested on: swine class I promoter (PD1)
Experiment: Transient transfection CAT assay, class I promoter chimeras in FRTL-5 cells
Assay type: cell-based
Conditions: for inhibition at 10 µM / inhibition at 25 µM / inhibition at 100 µM / inhibition at 1000 µM / inhibition at 5000 µM: Sus scrofa; for CAT activity +γIFN (100 U/ml) + MMI (5 mM) / CAT activity +γIFN (100 U/ml): 5H medium
Description: The full length PD1 promoter, PD1 CAT construct pH […], inserted into the multicloning site of pSV3CAT, has been previously described (Erhlich, R. et al. Immunogenetics 30:18-26 (1989)). […] The deletion series was also cloned into the pSV3CAT reporter construct to assess promoter activities (Weisman J D, et al. ibid (1991); Maguire, J. et al., Mol. Cell. Biol., 12:3078-3086 (1992)). […] The number denotes the most 5′-residue in the 5′-flanking region of the PD1 promoter.
FRTL-5 rat thyroid cells (Interthyr Research Foundation, Baltimore, Md.; ATCC CRL8305) were the same subclone (F1) used in the gel shift experiments described earlier. They were grown in the following medium: Coon's modified F-12 medium containing 5% heat-treated, mycoplasma-free calf serum, 1 mM nonessential amino acids, and a mixture of six hormones (6H) containing bovine TSH (1×10^−10M), insulin (10 μg/ml), cortisol (0.4 ng/ml), transferrin (5 μg/ml), glycyl-L-histidyl-L-lysine acetate (10 ng/ml), and somatostatin (10 ng/ml). Cells were diploid and between their 5th and 25th passage. Fresh medium was added every 2 or 3 days and cells were passaged every 7-10 days. In some experiments, cells were grown to near confluency in 6H medium then maintained for 5-8 days, before experiments were initiated, in 5H medium with no TSH.
To measure the promoter activity of MHC class I promoter constructs, as reported by CAT activity, two procedures were used. In one, rat FRTL-5 thyroid cells were transfected by the electroporation method described previously (Saji, M., et al., ibid (1992b); Giuliani, C., et al., ibid (1995); Saji, M., et al., ibid (1997)). In brief, FRTL-5 cells were grown to 80% confluence, put in fresh 6H medium containing 5% calf serum for 12 hours, harvested, washed and suspended at 1.5×10^7 cells/mil in 0.8 ml electroporation buffer (272 mM sucrose, 7 mM sodium phosphate at pH 7.4, and 1 mM MgCl2). Twenty μg of the full-length CAT construct were added with 5 μg pSVGH. Cells were then pulsed (330 volts, capacitance 25 μfarad), plated (approximately 6×10^6 cell/dish), and cultured for 12 hours in 6H medium containing 5% calf serum. […] After 48 hours they were harvested. […] Medium was taken for hGH radioimmunoassay to monitor transfection efficiency (Nichols Institute, San Juan Capistrano, Calif.) and cells were harvested for CAT assays which used 20-50 μg cell lysate in a final volume of 130 μl. Incubation was at 37° C. for 2 or 4 hours; acetylated chloramphenicol was separated by thin layer chromatograpy (TLC) and positive spots on TLC plates were cut out and quantitated in a scintillation spectrometer. CAT activity was normalized to GH activity and/or cell protein before data were compared.
Alternatively transient transfections used the same class I-CAT chimeras and a DEAE-dextran procedure (Lopata M A, et al., Nucleic Acids Res. 12:5707-5717 (1984); Giuliani C, et al., ibid (1995)). Cells were grown to near (80%) confluency in 6H medium, shifted to 5H medium for 1 day, washed twice with Dulbecco's modified phosphate buffered saline (DPBS), pH 7.4, and incubated 1 hour with 5 ml serum-free 5H medium containing the plasmid DNA plus 250 μg DEAE-dextran (5 Prime-3 Prime, Inc.). Cells were then exposed to 10% dimethylsulfoxide in DPBS for 3 min., washed twice in DPBS, cultured in 5H medium for 24 hours, then maintained therein another 48 hours with or without MMI, MMI derivatives or tautomeric cyclic thiones, as noted. Efficiency of transfection was determined by cotransfection as above or with 5 μg pRSVLuc (De Wet J R, et al., Mol. Cell. Biol. 7:725-737 (1987)).
In this experiment, FRTL-5 cells were grown to near confluency in 6H medium (plus TSH) and then were maintained in 5H medium (no TSH) for 7 days before being treated with γ-IFN or γ-IFN plus MMI for 40 hours. Control cells were those maintained in 5H medium for the same 40 hours. CAT activity was measured as described above.

[1] = FRTL-5, 10 μM, 100 U/ml γ-interferon, 6H medium, 40 hours, read-out: % inhibition of IFN-increased p(−203)CAT class I promoter activity
[2] = FRTL-5, 25 μM, 6H medium, 36 hours, read-out: % inhibition of basal p(−203)CAT class I promoter activity
[3] = FRTL-5, 100 μM, 6H medium, 36 hours, read-out: % inhibition of basal p(−203)CAT class I promoter activity
[4] = FRTL-5, 100 μM, 100 U/ml γ-interferon, 6H medium, 40 hours, read-out: % inhibition of IFN-increased p(−203)CAT class I promoter activity
[5] = FRTL-5, 1.0 mM, 6H medium, 36 hours, read-out: % inhibition of basal p(−203)CAT class I promoter activity
[6] = FRTL-5, 1.0 mM, 100 U/ml γ-interferon, 6H medium, 40 hours, read-out: % inhibition of IFN-increased p(−203)CAT class I promoter activity
[7] = FRTL-5, 5 mM, 6H medium, 36 hours, read-out: % inhibition of basal p(−203)CAT class I promoter activity
[8] = FRTL-5, 5 mM, 100 U/ml γ-interferon, 6H medium, 40 hours, read-out: % inhibition of IFN-increased p(−203)CAT class I promoter activity
[9] = 10 μM, 100 U/ml γ-interferon, 6H medium, 40 hours
[10] = 100 μM, 100 U/ml γ-interferon, 6H medium, 40 hours
[11] = 1.0 mM, 100 U/ml γ-interferon, 6H medium, 40 hours
[12] = 5 mM, 100 U/ml γ-interferon, 6H medium, 40 hours
[13] = FRTL-5, read-out: % inhibition of IFN-increased p(−203)CAT class I promoter activity
[14] = FRTL-5, read-out: % inhibition of basal p(−203)CAT class I promoter activity

Molecule	inhibition at 10 µM [1]	inhibition at 25 µM [2]	inhibition at 100 µM [3]	inhibition at 100 µM [4]	inhibition at 1000 µM [5]	inhibition at 1000 µM [6]	inhibition at 5000 µM [7]	inhibition at 5000 µM [8]	also measured
Cn1ccnc1S [Compound 1, 1-Methylimidazole-2-thiol]	0%	0%	0%	0%	32 ± 7%	35 ± 8%	74 ± 10%	72 ± 12%	CAT activity +γIFN (100 U/ml) + MMI (5 mM) (chimera p(−127), 40 hours): 55 ± 4 % of Control; CAT activity +γIFN (100 U/ml) + MMI (5 mM) (chimera p(−203), 40 hours): 95 ± 26 % of Control; CAT activity +γIFN (100 U/ml) + MMI (5 mM) (chimera p(−1100), 40 hours): 163 ± 48 % of Control; CAT activity +γIFN (100 U/ml) + MMI (5 mM) (pSV0 control plasmid, 40 hours): 38 ± 9 % of Control
Cc1ncc([N+](=O)[O-])n1CCO [Compound 2, 2-Methyl-5-nitro-1-imidazole ethanol]	0%	0%	10 ± 8%	0%	37 ± 11%	45 ± 5%	74 ± 9%	84 ± 13%	–
Sc1ncc[nH]1 [Compound 3, 2-Mercaptoimidazole]	–	–	–	–	–	–	–	–	% inhibition of IFN-increased p(−203)CAT class I promoter activity [9]: None; % inhibition of IFN-increased p(−203)CAT class I promoter activity [10]: None; % inhibition of IFN-increased p(−203)CAT class I promoter activity [11]: None; % inhibition of IFN-increased p(−203)CAT class I promoter activity [12]: None
Sc1nc2ccccc2[nH]1 [Compound 4, 2-Mercaptobenzimidazole]	–	–	–	–	–	–	–	–	inhibition at 10 µM [13]: 0%; inhibition at 100 µM [13]: 0%; inhibition at 1000 µM [13]: 40 ± 8%; inhibition at 5000 µM [13]: 76 ± 10%; inhibition at 25 µM [14]: 0%; inhibition at 100 µM [14]: 0%; inhibition at 1000 µM [14]: 50 ± 12%; inhibition at 5000 µM [14]: 90 ± 14%
O=[N+]([O-])c1ccc2[nH]c(S)nc2c1 [Compound 5, 2-Mercapto-5-nitrobenzimidazole]	–	–	–	–	–	–	45 ± 8%	43 ± 9%	–
Cc1ccc2[nH]c(S)nc2c1 [Compound 6, 2-Mercapto-5-methylbenzimidazole]	–	–	–	–	–	–	57 ± 13%	49 ± 7%	–
CSc1nccn1C [Compound 7, S-Methylmethimazole]	0%	0%	10 ± 9%	14 ± 11%	51 ± 6%	50 ± 13%	68 ± 8%	58 ± 12%	–
Cn1ccn(C)c1=S [Compound 8, N-Methylmethimazole]	–	–	–	–	–	–	–	–	% inhibition of IFN-increased p(−203)CAT class I promoter activity [9]: 0%; % inhibition of basal p(−203)CAT class I promoter activity (25 μM, 6H medium, 36 hours): 5 ± 5%; % inhibition of basal p(−203)CAT class I promoter activity (100 μM, 6H medium, 36 hours): 48 ± 10%; % inhibition of IFN-increased p(−203)CAT class I promoter activity [10]: 38 ± 9%; % inhibition of basal p(−203)CAT class I promoter activity (1.0 mM, 6H medium, 36 hours): 72 ± 6%; % inhibition of IFN-increased p(−203)CAT class I promoter activity [11]: 69 ± 7%; % inhibition of basal p(−203)CAT class I promoter activity (5 mM, 6H medium, 36 hours): 87 ± 11%; % inhibition of IFN-increased p(−203)CAT class I promoter activity [12]: 77 ± 14%
Cc1cnc(S)n1C [Compound 9, 5-Methylmethimazole]	0%	0%	0%	0%	14 ± 10%	10 ± 10%	25 ± 7%	29 ± 11%	–
Cn1c(-c2ccccc2)cnc1S [Compound 10, 5-Phenylmethimazole]	35 ± 10%	45 ± 9%	71 ± 6%	81 ± 14%	92 ± 12%	90 ± 13%	–	–	–
B1	–	–	–	–	–	–	–	–	CAT activity +γIFN (100 U/ml) (chimera p(−127), 40 hours): 500 ± 27 % of Control; CAT activity +γIFN (100 U/ml) (chimera p(−203), 40 hours): 750 ± 25 % of Control; CAT activity +γIFN (100 U/ml) (chimera p(−1100), 40 hours): 460 ± 40 % of Control; CAT activity +γIFN (100 U/ml) (pSV0 control plasmid, 40 hours): 48 ± 7 % of Control
